PMC11562385 (RSC Chemical Biology, 2024)
Peptide text beside a SMILES is read from it.

What was measured:
[1] = test system: h-PBMCs; assay: Ex vivo cytokine secretion assay, healthy PBMCs; format: cell-based, human; settings: h-PBMCs reactivated with anti-CD2/28, 6 h incubation, n = 3
Experimental: (§1) Then, an ex vivo immune cell culture system using h-PBMCs and exhausted PBMCs from a melanoma patient (e-PBMCs) was used to determine the efficacy of selected ADAPTin peptides on T-effector cells (Fig. 6).[91,92] T-cell exhaustion typically leads to a reduction in cytokine release, cytotoxic activity, as well as slower T-cell proliferation. […] Cytokines concentrations measured at 72 h post-treatment were in most cases over the detection limit range further indicating the effectiveness of our compounds over time.
(§2) Non-covalent ADAPTin2c/2p were used as negative control. (A) Levels of inflammatory cytokines measured by flow-cytometry (FACS) after 6 h incubation with electrophilic ADAPTins. Error bars indicate the mean ± SD, (n = 3). (B) Rescue of exhausted PBMCs from a melanoma patient. Levels of inflammatory cytokines and granule-associated proteins released (6 h) measured by FACS (healthy and untreated exhausted PBMCs: h-/e-PBMCs used as positive and negative controls respectively). Error bars indicate the avg ± SD, (n = 2).
(§3) Ex Vivo Cytokine Secretion Assay.
Normal PBMCs (from healthy donor) and exhausted PBMCs isolated from the blood sample of a melanoma patient were activated for 48 h before using anti-CD2/28 monoclonal antibodies with IL-2 (2 ng/mL) as mentioned above. […] Samples were transferred to a 96-well plate to read on a flow cytometer. […]

[2] = test system: e-PBMCs; assay: Ex vivo cytokine secretion assay, exhausted PBMCs from a melanoma patient; format: cell-based, human; settings: e-PBMC, 6 h, LEGENDplex
Experimental: as §1, §2, §3
Normal PBMCs (from healthy donor) and exhausted PBMCs isolated from the blood sample of a melanoma patient were activated for 48 h before using anti-CD2/28 monoclonal antibodies with IL-2 (2 ng/mL) as mentioned above. After 48 h, PBMCs were washed and incubated with a series of ADAPTins for 6 h. After treatment, media supernatant was collected for cytokine release measurements using the LEGENDplex™ human CD8/NK (13-plex) panel (BioLegend, cat no. 740267). Briefly, samples were mixed with assay buffer and human (13-plex) mixed-beads and plated on the 96-well filter plate. Samples were incubated for 2 h at room temperature, washed, and resuspended beads with detection antibodies according to manufacturer's protocol. Samples were transferred to a 96-well plate to read on a flow cytometer. The flow cytometer and data acquisition software setting were used according to the manufacturer's instructions. Flow analysis was obtained using a CytoFLEX-S flow cytometer equipped with 3 lasers (488 nm blue, 405 nm violet, and 638 nm from Beckman).
Table S9. Raw data of cytokine secretion assay (n=2).
Cytokine assay IL-2 TNF-α IFN-γ Perforin […]

[3] = target: PD1:PDL1 interaction; settings: read-out: apparent Ki, PD1:PDL1 interaction; cited from earlier work
Text: While downsizing a full antibody drug into a single CDR-H3 “hot loop”, one should anticipate a significant loss in binding affinity and specificity. […] The PD1 ...

[4] = target: T1, PD1:PDL1 interaction (Homo sapiens, UniProt Q15116); assay: PD1/PDL1 immunoblocking ELISA (BPS Bioscience kit cat # 72005); format: binding
T1 construct: purchased BPS Bioscience 72005
T1 sequence (Q15116 25-167 limits assumed): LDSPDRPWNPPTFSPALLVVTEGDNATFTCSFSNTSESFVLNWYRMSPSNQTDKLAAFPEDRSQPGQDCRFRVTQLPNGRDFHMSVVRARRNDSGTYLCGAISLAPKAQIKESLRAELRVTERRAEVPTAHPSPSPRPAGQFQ

CSCC[C@H](NC(=O)[C@H](CC(=O)O)NC(=O)[C@H](Cc1ccccc1)NC(=O)[C@H](CCCNC(=N)N)NC(=O)[C@H](Cc1ccc(O)cc1)NC(=O)[C@H](CC(=O)O)NC(=O)[C@H](CCCNC(=N)N)NC(=O)[C@H](CCCNC(=N)N)NC(=O)[C@H](C)NC(=O)[C@@H](NC(=O)[C@H](Cc1c[nH]c2ccccc12)NC(=O)[C@@H](N)CCCNC(=N)N)C(C)C)C(=O)NCC(=O)N[C@@H](Cc1ccccc1)C(=O)N[C@@H](CC(=O)O)C(=O)N[C@@H](Cc1ccc(O)cc1)C(=O)N[C@@H](Cc1c[nH]c2ccccc12)C(=O)N[C@H](C(=O)N[C@@H](Cc1c[nH]c2ccccc12)C(=O)N[C@@H](CCC(=O)O)C(=O)O)C(C)C [2c] (H-RWVARRDYRFDMGFDYWVWE-OH)
increase in TNF-α, IFN-γ and perforin levels [1]: no detectable activity
IFN-γ ([2]; replicate 1): 4131.52 pg/mL
IL-2 ([2]; replicate 1): 0.44 pg/mL
Perforin ([2]; replicate 1): 217.39 pg/mL
TNF-α ([2]; replicate 1): 483.47 pg/mL
IFN-γ ([2]; replicate 2): 7535.05 pg/mL
IL-2 ([2]; replicate 2): 266.63 pg/mL
Perforin ([2]; replicate 2): 381.31 pg/mL
TNF-α ([2]; replicate 2): 1150.47 pg/mL
Ki [3]: 41 nM
EC50 ([4]; ELISA, mean of three independent experiments, read-out: EC50 Value): 249 nM
LE (ligand efficiency) ([4]; LE = -RTln(EC50)/HA, HA = non-hydrogen atoms omitting the strap (RWV•••VWE)): 0.07
